According to ChEMBL document CHEMBL5226284, “Small Molecule Inhibitors Targeting Biosynthesis of Ceramide, the Central Hub of the Sphingolipid Network” (J Med Chem, 2021):
Values belong to the compound of their own block, whether it stands above or below them.

How the values were obtained:
[1] = Inhibition of bovine brain microsomes nSMase; set-up: species or system Bos taurus, Microsome
[2] = Non-competitive inhibition of bovine brain microsomes nSMase assessed as inhibition constant; set-up: species or system Bos taurus, Microsome
[3] = biological target: T1, Sphingomyelin phosphodiesterase 2 (Rattus norvegicus, UniProt Q9ET64); assay: Inhibition of rat brain nSMase; type: tissue-based
T1 sequence (Q9ET64 whole entry): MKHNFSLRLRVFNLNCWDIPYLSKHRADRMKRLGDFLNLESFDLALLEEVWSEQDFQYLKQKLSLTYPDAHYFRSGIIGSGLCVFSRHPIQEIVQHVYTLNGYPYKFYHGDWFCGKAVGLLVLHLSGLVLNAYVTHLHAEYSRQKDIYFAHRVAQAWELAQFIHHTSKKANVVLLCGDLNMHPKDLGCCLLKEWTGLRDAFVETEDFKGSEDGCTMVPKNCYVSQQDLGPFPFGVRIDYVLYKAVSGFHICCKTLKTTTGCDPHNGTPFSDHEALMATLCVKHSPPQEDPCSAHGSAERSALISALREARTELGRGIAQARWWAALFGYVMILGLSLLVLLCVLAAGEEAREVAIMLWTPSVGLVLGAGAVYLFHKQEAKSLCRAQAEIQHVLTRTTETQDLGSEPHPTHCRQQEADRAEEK

[4] = biological target: T2, Sphingolipid delta(4)-desaturase DES1 (Homo sapiens, UniProt O15121); assay: Noncompetitive inhibition of DES1 in human HGC-27 cell lysates assessed as inhibition constant; type: subcellular
T2 sequence (O15121 whole entry): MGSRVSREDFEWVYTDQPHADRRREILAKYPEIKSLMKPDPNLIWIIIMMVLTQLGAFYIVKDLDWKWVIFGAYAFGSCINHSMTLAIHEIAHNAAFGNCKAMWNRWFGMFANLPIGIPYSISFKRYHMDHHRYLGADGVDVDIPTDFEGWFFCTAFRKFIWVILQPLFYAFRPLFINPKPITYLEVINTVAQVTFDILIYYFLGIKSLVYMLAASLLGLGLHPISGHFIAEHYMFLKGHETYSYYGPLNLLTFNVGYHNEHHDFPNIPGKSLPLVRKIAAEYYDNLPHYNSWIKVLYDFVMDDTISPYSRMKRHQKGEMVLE

[5] = Inhibition of Bacillus cereus nSMase
[6] = biological target: T1, Sphingomyelin phosphodiesterase 2; assay: Inhibition of rat brain microsomes nSMase assessed as inhibition constant; set-up: species or system Microsome
[7] = Inhibition of rat plasma secretory SMase; type: cell-free
[8] = Mixed type inhibition of human recombinant glucocerebrosidase at pH 6.7
[9] = Mixed type inhibition of human recombinant glucocerebrosidase at pH 4.3
[10] = Mixed type inhibition of human recombinant glucocerebrosidase at pH 5.6
[11] = biological target: Acetylcholinesterase (Homo sapiens, UniProt P22303); assay: Inhibition of AChe (unknown origin)
[12] = biological target: T2, Sphingolipid delta(4)-desaturase DES1; assay: Inhibition of DES1 in human HGC-27 cell lysates; type: subcellular
[13] = biological target: T2, Sphingolipid delta(4)-desaturase DES1; assay: Binding affinity to DES1 in human HGC-27 cell lysates assessed as inhibition constant; type: subcellular
[14] = biological target: T3, Sphingolipid delta(4)-desaturase DES1 (Rattus norvegicus, UniProt Q5XIF5); assay: Inhibition of rat liver microsome DES1 using N-octanoylsphinganine as substrate incubated for 30 mins; type: microsomes
T3 sequence (Q5XIF5 whole entry): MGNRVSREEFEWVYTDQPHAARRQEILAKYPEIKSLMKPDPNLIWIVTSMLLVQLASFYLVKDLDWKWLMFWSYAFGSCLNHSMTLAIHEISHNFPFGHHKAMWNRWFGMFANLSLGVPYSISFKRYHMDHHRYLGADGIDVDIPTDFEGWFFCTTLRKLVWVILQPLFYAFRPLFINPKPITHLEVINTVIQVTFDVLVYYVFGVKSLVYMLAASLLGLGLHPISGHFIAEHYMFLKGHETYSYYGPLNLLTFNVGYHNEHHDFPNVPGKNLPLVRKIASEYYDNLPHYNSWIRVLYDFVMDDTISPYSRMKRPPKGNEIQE

[15] = Inhibition of rat liver microsome Sphingosine N-acyltransferase assessed as inhibition of [3H]sphingosine to [3H]ceramide conversion incubated for 2 hrs; type: microsomes
[16] = biological target: Ceramide synthase 6 (Homo sapiens, UniProt Q6ZMG9); assay: Inhibition of human CerS6
[17] = biological target: Ceramide synthase 5 (Mus musculus, UniProt Q9D6K9); assay: Inhibition of mouse CerS5
[18] = biological target: Ceramide synthase 2 (Mus musculus, UniProt Q924Z4); assay: Inhibition of mouse CerS2
[19] = biological target: T4, Ceramide synthase 2 (Homo sapiens, UniProt Q96G23); assay: Inhibition of human CerS2
T4 sequence (Q96G23 whole entry): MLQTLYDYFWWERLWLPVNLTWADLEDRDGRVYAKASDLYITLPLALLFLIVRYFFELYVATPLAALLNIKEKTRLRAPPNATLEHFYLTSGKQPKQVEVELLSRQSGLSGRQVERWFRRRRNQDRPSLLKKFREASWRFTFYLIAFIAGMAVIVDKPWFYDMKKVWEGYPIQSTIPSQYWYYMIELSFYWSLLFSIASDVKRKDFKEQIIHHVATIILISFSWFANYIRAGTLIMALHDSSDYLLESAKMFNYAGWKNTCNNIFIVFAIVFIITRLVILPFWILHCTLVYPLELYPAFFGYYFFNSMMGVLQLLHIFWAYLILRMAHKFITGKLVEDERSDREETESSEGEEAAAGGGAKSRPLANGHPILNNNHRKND

[20] = biological target: Ceramide synthase 4 (Homo sapiens, UniProt Q9HA82); assay: Inhibition of human CerS4
[21] = biological target: Sphingomyelinase C (Bacillus cereus) (UniProt P11889); assay: Inhibition of Bacillus cereus SMaseC at 100 uM relative to control
[22] = biological target: T3, Sphingolipid delta(4)-desaturase DES1; assay: Inhibition of rat liver microsome DES1 incubated for 20 min in presence of NADH by liquid scintillation counter method; type: microsomes
[23] = biological target: T2, Sphingolipid delta(4)-desaturase DES1; assay: Inhibition of DES1 (unknown origin)
[24] = biological target: T3, Sphingolipid delta(4)-desaturase DES1; assay: Inhibition of rat liver microsome DES1 assessed as inhibition constant incubated for 20 mins in presence of NADH by liquid scintillation counter method; type: microsomes
[25] = biological target: T4, Ceramide synthase 2; assay: Inhibition of CerS2 in HPAC cells using DHSph as substrate; type: cell-based
[26] = biological target: T4, Ceramide synthase 2; assay: Competitive inhibition of CerS2 in HPAC cells using DHSph as substrate by LC/MS/MS analysis; type: cell-based
[27] = biological target: T3, Sphingolipid delta(4)-desaturase DES1; assay: Inhibition of rat liver microsome DES1 incubated for 1 hr fluorescence based analysis; type: microsomes
[28] = Inhibition of rat brain aSMase using HMU-PC as substrate incubated for 3 hrs by fluorescence based analysis; type: tissue-based
[29] = Competitive inhibition of rat brain aSMase assessed as inhibition constant; type: tissue-based
[30] = biological target: Sphingomyelin phosphodiesterase (Homo sapiens, UniProt P17405); assay: Inhibition of recombinant human aSMase assessed as inhibition constant
[31] = biological target: Sphingomyelin phosphodiesterase (Homo sapiens) (UniProt P17405); assay: Inhibition of recombinant human aSMase at 5 uM relative to control
Chain of Sphingomyelin phosphodiesterase (Homo sapiens) (P17405 whole entry): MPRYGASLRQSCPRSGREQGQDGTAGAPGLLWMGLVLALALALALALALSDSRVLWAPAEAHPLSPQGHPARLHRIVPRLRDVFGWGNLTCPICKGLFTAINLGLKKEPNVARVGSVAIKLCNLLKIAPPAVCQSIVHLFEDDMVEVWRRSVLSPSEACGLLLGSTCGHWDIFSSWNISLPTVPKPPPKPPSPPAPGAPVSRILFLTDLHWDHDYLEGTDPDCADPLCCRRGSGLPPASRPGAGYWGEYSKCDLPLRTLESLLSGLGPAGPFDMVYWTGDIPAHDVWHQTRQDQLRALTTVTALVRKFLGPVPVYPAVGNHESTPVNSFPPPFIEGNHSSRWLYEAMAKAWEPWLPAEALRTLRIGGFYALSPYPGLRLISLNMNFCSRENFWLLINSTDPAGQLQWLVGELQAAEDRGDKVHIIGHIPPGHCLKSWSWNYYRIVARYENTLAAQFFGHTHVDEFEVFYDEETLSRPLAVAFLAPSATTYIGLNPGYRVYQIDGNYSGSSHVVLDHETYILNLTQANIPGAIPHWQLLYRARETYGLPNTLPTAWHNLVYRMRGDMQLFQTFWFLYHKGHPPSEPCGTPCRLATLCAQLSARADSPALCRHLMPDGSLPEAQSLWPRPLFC

Chain of Ceramide synthase 6 (Q6ZMG9 whole entry): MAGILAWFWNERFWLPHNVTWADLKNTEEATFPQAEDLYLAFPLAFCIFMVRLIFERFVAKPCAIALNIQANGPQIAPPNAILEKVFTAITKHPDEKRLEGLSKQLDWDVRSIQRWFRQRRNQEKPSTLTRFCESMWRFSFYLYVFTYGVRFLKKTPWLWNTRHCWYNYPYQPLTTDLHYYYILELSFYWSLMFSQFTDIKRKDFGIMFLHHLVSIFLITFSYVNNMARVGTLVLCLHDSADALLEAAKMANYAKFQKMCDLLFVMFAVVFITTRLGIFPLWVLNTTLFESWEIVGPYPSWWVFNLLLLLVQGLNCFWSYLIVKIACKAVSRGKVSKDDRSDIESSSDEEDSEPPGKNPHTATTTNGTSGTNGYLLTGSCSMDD
Chain of Ceramide synthase 5 (Q9D6K9 whole entry): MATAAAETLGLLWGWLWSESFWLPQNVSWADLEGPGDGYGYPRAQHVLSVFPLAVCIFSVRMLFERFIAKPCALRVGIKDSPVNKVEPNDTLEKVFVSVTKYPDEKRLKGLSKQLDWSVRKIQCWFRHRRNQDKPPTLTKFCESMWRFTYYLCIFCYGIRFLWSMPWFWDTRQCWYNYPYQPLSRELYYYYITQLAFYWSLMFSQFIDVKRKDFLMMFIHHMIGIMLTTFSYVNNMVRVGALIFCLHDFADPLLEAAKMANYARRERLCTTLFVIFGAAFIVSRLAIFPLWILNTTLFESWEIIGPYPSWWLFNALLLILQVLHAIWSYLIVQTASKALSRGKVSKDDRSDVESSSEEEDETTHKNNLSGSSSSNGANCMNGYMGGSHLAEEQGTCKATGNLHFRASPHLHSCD
Chain of Sphingomyelinase C (Bacillus cereus) (P11889 whole entry): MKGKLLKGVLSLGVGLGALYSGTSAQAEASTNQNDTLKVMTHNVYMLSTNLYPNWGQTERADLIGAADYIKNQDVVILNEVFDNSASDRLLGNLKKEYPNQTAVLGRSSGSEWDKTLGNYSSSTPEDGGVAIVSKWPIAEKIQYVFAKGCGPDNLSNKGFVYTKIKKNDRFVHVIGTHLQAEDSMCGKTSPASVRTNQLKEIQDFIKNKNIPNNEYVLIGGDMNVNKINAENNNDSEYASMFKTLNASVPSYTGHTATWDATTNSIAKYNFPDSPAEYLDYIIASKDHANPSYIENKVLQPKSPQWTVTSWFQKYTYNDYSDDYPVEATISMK
Chain of Ceramide synthase 2 (Mus musculus, UniProt Q924Z4) (Q924Z4 whole entry): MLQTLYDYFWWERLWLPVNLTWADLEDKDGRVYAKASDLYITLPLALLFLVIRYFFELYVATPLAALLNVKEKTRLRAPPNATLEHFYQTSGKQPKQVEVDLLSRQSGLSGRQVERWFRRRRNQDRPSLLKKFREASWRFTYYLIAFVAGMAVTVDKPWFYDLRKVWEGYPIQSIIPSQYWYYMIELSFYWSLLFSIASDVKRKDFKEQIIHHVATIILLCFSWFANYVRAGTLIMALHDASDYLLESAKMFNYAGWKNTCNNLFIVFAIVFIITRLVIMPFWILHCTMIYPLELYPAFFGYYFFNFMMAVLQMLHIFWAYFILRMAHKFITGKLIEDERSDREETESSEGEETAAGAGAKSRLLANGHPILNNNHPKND
Chain of Sphingomyelin phosphodiesterase (P17405 whole entry): as the sequence (P17405 whole entry) above
Chain of Acetylcholinesterase (P22303 whole entry): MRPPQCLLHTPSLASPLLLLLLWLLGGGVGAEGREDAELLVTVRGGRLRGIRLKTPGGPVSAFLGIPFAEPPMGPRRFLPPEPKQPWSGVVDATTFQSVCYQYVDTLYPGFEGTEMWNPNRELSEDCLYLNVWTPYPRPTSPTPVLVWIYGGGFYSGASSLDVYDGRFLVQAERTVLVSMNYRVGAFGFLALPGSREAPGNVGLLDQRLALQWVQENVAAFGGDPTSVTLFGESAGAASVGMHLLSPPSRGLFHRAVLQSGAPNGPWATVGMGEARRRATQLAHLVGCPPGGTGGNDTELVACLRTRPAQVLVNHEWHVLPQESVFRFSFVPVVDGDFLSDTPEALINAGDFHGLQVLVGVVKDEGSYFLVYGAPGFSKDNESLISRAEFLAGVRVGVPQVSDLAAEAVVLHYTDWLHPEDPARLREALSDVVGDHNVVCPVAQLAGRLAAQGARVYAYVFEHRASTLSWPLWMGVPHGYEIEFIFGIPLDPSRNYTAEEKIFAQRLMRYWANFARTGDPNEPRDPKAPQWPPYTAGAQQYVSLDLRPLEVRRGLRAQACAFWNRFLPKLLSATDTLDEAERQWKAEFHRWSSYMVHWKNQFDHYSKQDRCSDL
Chain of Ceramide synthase 4 (Q9HA82 whole entry): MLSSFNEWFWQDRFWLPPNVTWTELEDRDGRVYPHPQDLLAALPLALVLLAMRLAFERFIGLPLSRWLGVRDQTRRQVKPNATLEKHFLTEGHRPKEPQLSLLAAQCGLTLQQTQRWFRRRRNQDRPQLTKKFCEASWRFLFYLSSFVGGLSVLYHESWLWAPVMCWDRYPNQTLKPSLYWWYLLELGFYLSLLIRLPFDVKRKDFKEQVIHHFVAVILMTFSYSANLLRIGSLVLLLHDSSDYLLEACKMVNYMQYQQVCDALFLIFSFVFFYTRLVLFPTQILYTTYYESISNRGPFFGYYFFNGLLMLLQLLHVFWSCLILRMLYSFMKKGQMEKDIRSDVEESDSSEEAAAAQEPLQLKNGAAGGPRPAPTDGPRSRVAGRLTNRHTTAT

Compound: O=c1[nH]c(=S)[nH]c(-c2ccccc2)c1Cc1c(O)ccc2ccccc12 [CAMBINOL]
IC50 [5]: 5 µM

Compound: COc1cc(O)c(C(=O)O)c(-c2cc(O)c(O)cc2C)c1 [ALTENUSIN]
Ki [6]: 20 µM

Compound: Nc1c(Br)cc(Br)cc1CN[C@H]1CC[C@H](O)CC1 [AMBROXOL]
IC50 [8]: 8.1 µM
IC50 [9]: > 1100 µM
IC50 [10]: 31 µM

Compound: CN1c2ccc(OC(=O)Nc3ccncc3)cc2[C@]2(C)CCO[C@H]12
IC50 [11]: 7 µM

Compound: CCCC[C@@H](C)[C@@H](OC(=O)C[C@@H](CC(=O)O)C(=O)O)[C@H](C[C@@H](C)C[C@H](O)CCCC[C@@H](O)C[C@H](O)[C@H](C)N)OC(=O)C[C@@H](CC(=O)O)C(=O)O
IC50 [15]: 0.1 µM

Compound: C[C@@](N)(CO)CCc1ccc(OCc2ccc(Cl)c(Cl)c2)cc1
IC50 [16]: 7 µM
IC50 [17]: 7 µM
IC50 [18]: 7 µM
IC50 [19]: 7 µM
IC50 [20]: 7 µM

Compound: CCCCCCCCCCCCC/C=C/[C@@H](OCc1cccc(-c2ccccn2)n1)[C@H](CO)NC(=O)CCCCC
inhibition [21]: 20%

Compound: CC1=C(/C=C/C(C)=C/C=C/C(C)=C/C(=O)Nc2ccc(O)cc2)C(C)(C)CCC1 [FENRETINIDE]
IC50 [22]: 2.32 µM
IC50 [23]: 0.1 µM
Ki [24]: 8.28 µM

Compound: CCCCCCCCCCCCCSC[C@@H](O)[C@H](CO)NC(=O)CCCCCCC
IC50 [27]: 8.2 µM

Second part, the compound after the results:

IC50 [1]: 3.3 µM
Ki [2]: 1.6 µM
Compound: CCCCCCCCCCCCCCCC(=O)N[C@H](CC(F)(F)P(=O)(O)O)[C@@H](O)c1ccccc1

IC50 [3]: 1 µM
Compound: O=C(/C=C/c1ccc(/C=C/C(=O)Nc2ccc(C3=NCCN3)cc2)cc1)Nc1ccc(C2=NCCN2)cc1

Ki [4]: 0.3 µM
Compound: Oc1ccc(Nc2nc(-c3ccc(Cl)cc3)cs2)cc1

IC50 [7]: 1.7 µM
Compound: COc1cc([C@H]2Oc3cc(O)cc(O)c3C[C@H]2OC(=O)c2cc(O)c(O)c(O)c2)cc(O)c1O

IC50 [12]: 0.052 µM
Ki [13]: 0.022 µM
Ki [14]: 6 µM
Compound: CCCCCCCCCCCCCC1=C([C@@H](O)[C@H](CO)NC(=O)CCCCCCC)C1

IC50 [25]: 6.4 µM
Ki [26]: 2.15 µM
Compound: CCCCCCCCc1ccc(CCC(N)(CO)CO)cc1 [FINGOLIMOD]

IC50 [28]: 0.9 µM
Ki [29]: 0.42 µM
Compound: CCCCCCCCCCCCOS(=O)(=O)O[C@@H]1[C@H](O)[C@H](OP(=O)(O)O)[C@@H](O)[C@H](OP(=O)(O)O)[C@H]1O

Ki [30]: 0.53 µM
IC50 [28]: 0.93 µM
inhibition [31]: > 90%
Compound: CCCCCCCC(=O)OC[C@H](COP(=O)(O)O[C@@H]1[C@H](O)[C@H](OP(=O)(O)O)[C@@H](O)[C@H](OP(=O)(O)O)[C@H]1O)OC(=O)CCCCCCC
